Laboratory results published in patent publication US9604964B2, “Dihydropyrazole GPR40 modulators” (BRISTOL-MYERS SQUIBB COMPANY, priority 2012, dated 2017).

Molecular target: human GPR40 (Homo sapiens, UniProt O14842)
Assay: FDSS-based intracellular calcium assay (Human GPR40 in vitro assay)
Type: cell-based
Design: 3xFLAG; expressed in transfected cells
Settings: intracellular Ca2+ response, cells expressing GPR40; read-out: hGPR40 EC50
Protocol: FDSS-based Intracellular Calcium Assay
Compounds are dissolved in DMSO and diluted to desired concentrations with assay buffer and added to the cells as 3× solution (20 μL per well). Run fluorescence/luminescence reader FDSS (Hamamatsu) to read intracellular Ca^2+ response.

Sequence of human GPR40 (O14842 whole entry): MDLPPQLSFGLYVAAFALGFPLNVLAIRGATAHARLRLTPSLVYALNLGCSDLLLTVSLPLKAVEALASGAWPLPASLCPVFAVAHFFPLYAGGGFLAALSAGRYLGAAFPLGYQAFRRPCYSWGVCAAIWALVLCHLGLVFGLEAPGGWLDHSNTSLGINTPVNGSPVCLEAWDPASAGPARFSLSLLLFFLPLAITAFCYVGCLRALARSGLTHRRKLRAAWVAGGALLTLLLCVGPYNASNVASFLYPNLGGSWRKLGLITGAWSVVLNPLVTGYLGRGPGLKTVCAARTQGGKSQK

Compound | EC50
C[C@@H]1C(C(F)(F)F)=NN(c2ccc(OC3CCN(c4nccs4)CC3)cc2)[C@H]1CC(=O)O [Example 13, 2-((4S,5S)-4-methyl-1-(4-((1-(thiazol-2-yl)piperidin-4-yl)oxy)phenyl)-3-(trifluoromethyl)-4,5-dihydro-1H-pyrazol-5-yl)acetic acid] | 1690 nM
C[C@@H]1C(C(F)(F)F)=NN(c2ccc(OC3CCN(C(=O)OCc4ccccc4)CC3)cc2)[C@H]1CC(=O)O [Example 14, 2-((4S,5S)-1-(4-((1-((benzyloxy)carbonyl)piperidin-4-yl)oxy)phenyl)-4-methyl-3-(trifluoromethyl)-4,5-dihydro-1H-pyrazol-5-yl)acetic acid] | 4270 nM
C[C@@H]1C(C(F)(F)F)=NN(c2ccc(OC3CCN(C(=O)OC(C)(C)C)CC3)cc2)[C@H]1CC(=O)O [Example 15, 2-((4S,5S)-1-(4-((1-(tert-butoxycarbonyl)piperidin-4-yl)oxy)phenyl)-4-methyl-3-(trifluoromethyl)-4,5-dihydro-1H-pyrazol-5-yl)acetic acid] | 1720 nM
C[C@@H]1C(C(F)(F)F)=NN(c2ccc(OC3CCN(c4cc(OC5CCCC5)cc(F)c4F)CC3)cc2)[C@H]1CC(=O)O [Example 19, 2-((4S,5S)-1-(4-((1-(5-(cyclopentyloxy)-2,3-difluorophenyl)piperidin-4-yl)oxy)phenyl)-4-methyl-3-(trifluoromethyl)-4,5-dihydro-1H-pyrazol-5-yl)acetic acid] | 4820 nM
C[C@@H]1C(C(F)(F)F)=NN(c2ccc(OC3CCN(c4nccc(C(F)(F)F)n4)CC3)cc2)[C@H]1CC(=O)O [Example 20, 2-((4S,5S)-4-methyl-3-(trifluoromethyl)-1-(4-((1-(4-(trifluoromethyl)pyrimidin-2-yl)piperidin-4-yl)oxy)phenyl)-4,5-dihydro-1H-pyrazol-5-yl)acetic acid] | 1420 nM
COc1ccc(F)c(N2CCCC(Oc3ccc(N4N=C(C(F)(F)F)[C@@H](C)[C@@H]4CC(=O)O)cc3)CC2)c1 (stereo partly drawn) [Example 23, 2-((4S,5S)-1-(4-((1-(2-fluoro-5-methoxyphenyl)azepan-4-yl)oxy)phenyl)-4-methyl-3-(trifluoromethyl)-4,5-dihydro-1H-pyrazol-5-yl)acetic acid] | 3020 nM
COc1cncc(N2CCC(Oc3ccc(N4N=C(C(F)(F)F)[C@@H](C)[C@@H]4CC(=O)O)cc3)CC2)n1 [Example 53, 2-((4S,5S)-1-(4-((1-(6-methoxypyrazin-2-yl)piperidin-4-yl)oxy)phenyl)-4-methyl-3-(trifluoromethyl)-4,5-dihydro-1H-pyrazol-5-yl)acetic acid] | 4200 nM
C[C@@H]1C(C(F)(F)F)=NN(c2ccc(OC3CCN(c4cnc(Cl)cn4)CC3)cc2)[C@H]1CC(=O)O [Example 55, 2-((4S,5S)-1-(4-((1-(5-chloropyrazin-2-yl)piperidin-4-yl)oxy)phenyl)-4-methyl-3-(trifluoromethyl)-4,5-dihydro-1H-pyrazol-5-yl)acetic acid] | 6250 nM
COc1ccc(F)c(N2C(=O)[C@H]3C[C@@H]2CC3Oc2ccc(N3N=C(C(F)(F)F)[C@@H](C)[C@@H]3CC(=O)O)cc2)c1 (stereo partly drawn) [Example 67, 2-((4S,5S)-1-(4-(((1R,4S)-2-(2-fluoro-5-methoxyphenyl)-3-oxo-2-azabicyclo[2.2.1]heptan-5-yl)oxy)phenyl)-4-methyl-3-(trifluoromethyl)-4,5-dihydro-1H-pyrazol-5-yl)acetic acid] | 6410 nM
COc1ccc(F)c(N2C(=O)[C@@H]3C[C@H]2CC3Oc2ccc(N3N=C(C(F)(F)F)[C@@H](C)[C@@H]3CC(=O)O)cc2)c1 (stereo partly drawn) [Example 68, 2-((4S,5S)-1-(4-(((1S,4R)-2-(2-fluoro-5-methoxyphenyl)-3-oxo-2-azabicyclo[2.2.1]heptan-5-yl)oxy)phenyl)-4-methyl-3-(trifluoromethyl)-4,5-dihydro-1H-pyrazol-5-yl)acetic acid] | 5040 nM
COc1ccc(F)c(N2C[C@H]3C[C@@H]2CC3Oc2ccc(N3N=C(C(F)(F)F)[C@@H](C)[C@@H]3CC(=O)O)cc2)c1 (stereo partly drawn) [Example 69, 2-((4S,5S)-1-(4-(((1R,4R)-2-(2-fluoro-5-methoxyphenyl)-2-azabicyclo[2.2.1]heptan-5-yl)oxy)phenyl)-4-methyl-3-(trifluoromethyl)-4,5-dihydro-1H-pyrazol-5-yl)acetic acid] | 847 nM
COc1ccc(F)c(N2C[C@@H]3C[C@H]2CC3Oc2ccc(N3N=C(C(F)(F)F)[C@@H](C)[C@@H]3CC(=O)O)cc2)c1 (stereo partly drawn) [Example 70, 2-((4S,5S)-1-(4-(((1S,4S)-2-(2-fluoro-5-methoxyphenyl)-2-azabicyclo[2.2.1]heptan-5-yl)oxy)phenyl)-4-methyl-3-(trifluoromethyl)-4,5-dihydro-1H-pyrazol-5-yl)acetic acid] | 1000 nM
CCOc1ccc(F)c(N2CCC(Oc3ccc(N4N=C(c5ccc(C#N)c(C#N)c5)[C@@H](C)[C@@H]4CC(=O)O)cc3)CC2)c1 [Example 96, 2-((4S,5S)-3-(3,4-dicyanophenyl)-1-(4-((1-(5-ethoxy-2-fluorophenyl)piperidin-4-yl)oxy)phenyl)-4-methyl-4,5-dihydro-1H-pyrazol-5-yl)acetic acid] | 1570 nM
CCOc1cc(F)c(F)c(N2CCC(Oc3ccc(N4N=C(c5ccc(F)c(F)c5)[C@@H](C)[C@@H]4CC(=O)O)cc3)CC2)c1 [Example 97, 2-((4S,5S)-3-(3,4-difluorophenyl)-1-(4-((1-(5-ethoxy-2,3-difluorophenyl)piperidin-4-yl)oxy)phenyl)-4-methyl-4,5-dihydro-1H-pyrazol-5-yl)acetic acid] | 3140 nM
COc1ccc(F)c(N2CCC(Cc3ccc(N4N=C(C(F)(F)F)[C@@H](C)[C@@H]4CC(=O)O)cc3)CC2)c1 [Example 100, 2-((4S,5S)-1-(4-((1-(2-fluoro-5-methoxyphenyl)piperidin-4-yl)methyl)phenyl)-4-methyl-3-(trifluoromethyl)-4,5-dihydro-1H-pyrazol-5-yl)acetic acid] | 266 nM
COc1cc(N2CC[C@@H](Oc3ccc(N4N=C(C(F)(F)F)[C@@H](C)[C@@H]4CC(=O)O)cc3)[C@H](CO)C2)c(Cl)cn1 [Example B1, 2-((4S,5S)-1-(4-(((3S,4R)-1-(5-chloro-2-methoxypyridin-4-yl)-3-(hydroxymethyl)piperidin-4-yl)oxy)phenyl)-4-methyl-3-(trifluoromethyl)-4,5-dihydro-1H-pyrazol-5-yl)acetic acid] | 2480 nM
CCOc1ccc(F)c(N2CCC(Oc3ccc(N4N=C(c5ccc(C(=O)O)cc5F)[C@@H](C)[C@@H]4CC(=O)O)cc3)CC2)c1 [Example B4, 4-((4S,5S)-5-(carboxymethyl)-1-(4-((1-(5-ethoxy-2-fluorophenyl)piperidin-4-yl)oxy)phenyl)-4-methyl-4,5-dihydro-1H-pyrazol-3-yl)-3-fluorobenzoic acid] | 4950 nM

Second part, the compound after the results:

EC50 | Compound
761 nM | COc1cccc(N2CCC(Cc3ccc(N4N=C(C(F)(F)F)[C@@H](C)[C@@H]4CC(=O)O)cc3)CC2)c1 [Example B8, 2-((4S,5S)-1-(4-((1-(3-methoxyphenyl)piperidin-4-yl)methyl)phenyl)-4-methyl-3-(trifluoromethyl)-4,5-dihydro-1H-pyrazol-5-yl)acetic acid]
2660 nM | COc1cc(N2CCC(Cc3ccc(N4N=C(C(F)(F)F)[C@@H](C)[C@@H]4CC(=O)O)cc3)CC2)ccn1 [Example B9, 2-((4S,5S)-1-(4-((1-(2-methoxypyridin-4-yl)piperidin-4-yl)methyl)phenyl)-4-methyl-3-(trifluoromethyl)-4,5-dihydro-1H-pyrazol-5-yl)acetic acid]
517 nM | COc1cc(N2CCC(Cc3ccc(N4N=C(C(F)(F)F)[C@@H](C)[C@@H]4CC(=O)O)cc3)CC2)c(Cl)cn1 [Example B10, 2-((4S,5S)-1-(4-((1-(5-chloro-2-methoxypyridin-4-yl)piperidin-4-yl)methyl)phenyl)-4-methyl-3-(trifluoromethyl)-4,5-dihydro-1H-pyrazol-5-yl)acetic acid]
7380 nM | C[C@@H]1C(C(F)(F)F)=NN(c2ccc(CC3C4CCC3CN(C(=O)OCc3ccccc3)C4)cc2)[C@H]1CC(=O)O (stereo partly drawn) [Example B11, 2-((4S,5S)-1-(4-(((1R,5S,8S)-3-((benzyloxy)carbonyl)-3-azabicyclo[3.2.1]octan-8-yl)methyl)phenyl)-4-methyl-3-(trifluoromethyl)-4,5-dihydro-1H-pyrazol-5-yl)acetic acid]
5720 nM | COc1cccc(N2CC3CCC(C2)C3Cc2ccc(N3N=C(C(F)(F)F)[C@@H](C)[C@@H]3CC(=O)O)cc2)c1 (stereo partly drawn) [Example B12, 2-((4S,5S)-1-(4-(((1R,5S,8S)-3-(3-methoxyphenyl)-3-azabicyclo[3.2.1]octan-8-yl)methyl)phenyl)-4-methyl-3-(trifluoromethyl)-4,5-dihydro-1H-pyrazol-5-yl)acetic acid]
2200 nM | COc1cc(N2CC3CCC(C2)C3Cc2ccc(N3N=C(C(F)(F)F)[C@@H](C)[C@@H]3CC(=O)O)cc2)c(Cl)cn1 (stereo partly drawn) [Example B13, 2-((4S,5S)-1-(4-(((1R,5S,8S)-3-(5-chloro-2-methoxypyridin-4-yl)-3-azabicyclo[3.2.1]octan-8-yl)methyl)phenyl)-4-methyl-3-(trifluoromethyl)-4,5-dihydro-1H-pyrazol-5-yl)acetic acid]
569 nM | C[C@@H]1C(C(F)(F)F)=NN(c2ccc(OC3CCN(c4cc5c(cc4Cl)OCO5)CC3)cc2)[C@H]1CC(=O)O [Example B14, 2-((4S,5S)-1-(4-((1-(6-Chlorobenzo[d] [1,3]dioxol-5-yl)piperidin-4-yl)oxy)phenyl)-4-methyl-3-(trifluoromethyl)-4,5-dihydro-1H-pyrazol-5-yl)acetic acid]
325 nM | C[C@@H]1C(C(F)(F)F)=NN(c2ccc(OC3CCN(c4cc5c(cc4Cl)OCCO5)CC3)cc2)[C@H]1CC(=O)O [Example B15, 2-((4S,5S)-1-(4-((1-(7-Chloro-2,3-dihydrobenzo[b][1,4]dioxin-6-yl)piperidin-4-yl)oxy)phenyl)-4-methyl-3-(trifluoromethyl)-4,5-dihydro-1H-pyrazol-5-yl)acetic acid]
